US20240228488A1 (TAKEDA PHARMACEUTICAL COMPANY LIMITED, priority 2021, published 2024)

Columns and labels:
plasma kallikrein = target: T1, plasma kallikrein (Homo sapiens, UniProt P03952); experiment: Neat human plasma assay, FXIIa contact pathway-activated, PFR-AMC substrate; type: biochemical; details: citrated human plasma 78% final, 10 nM human FXIIa, 100 μM PFR-AMC; read-out: Human Plasma Assay: IC90
T1 construct: from tissue
Procedure: To analyze inhibition of plasma kallikrein in an ex vivo setting, the potency of compounds was measure in contact pathway-activated plasma assays. In a fluorogenic peptide substrate assay, test compounds dissolved in DMSO were added to sodium citrate collected human or rat plasma in a 96-well microplate. Alternatively, citrated plasma was collected from rats administered the compounds orally or by IV. 10 nM of human FXIIa (Enzyme Research Laboratories) diluted in pKal buffer (20 mM Tris-HCl, pH 7.5, 150 mM NaCl, 1 mM EDTA, 0.1% PEG-8000, and 0.1% Triton X-100) was added to the plasma, followed by the 100 μM of the profluorescent, synthetic plasma kallikrein substrate PFR-AMC (also diluted in pKal buffer). Final plasma concentration in the reaction was 78%. Fluorescence was immediately monitored by excitation/emission wavelengths of 360 nm/480 nm respectively over a period of 5 minutes in a microplate reader. The resulting linear increase in fluorescence emission (reflecting pKal proteolysis of PFR-AMC substrate) was fit to extract a proteolytic rate (fluorescent units over time), and this rate was subsequently plotted against compound inhibitor concentration. Resulting plots were fit to a standard 4-parameter IC50/IC90 equation to determine min/max values, IC50/90, and slope. All experimental steps were performed at room temperature. Table 50 provides results of the assay.

[1] = target: human activated kallikrein enzyme (Homo sapiens, UniProt P03952); experiment: Plasma kallikrein inhibition, fluorogenic PFR-AMC substrate, 500 pM activated kallikrein format; type: biochemical; details: 500 pM activated kallikrein, 300 uM PFR-AMC, 30 min preincubation, 10 min reaction; read-out: Primary Dose Response Assay: Average EC50
Sequence of human activated kallikrein enzyme (P03952 391-638 limits assumed): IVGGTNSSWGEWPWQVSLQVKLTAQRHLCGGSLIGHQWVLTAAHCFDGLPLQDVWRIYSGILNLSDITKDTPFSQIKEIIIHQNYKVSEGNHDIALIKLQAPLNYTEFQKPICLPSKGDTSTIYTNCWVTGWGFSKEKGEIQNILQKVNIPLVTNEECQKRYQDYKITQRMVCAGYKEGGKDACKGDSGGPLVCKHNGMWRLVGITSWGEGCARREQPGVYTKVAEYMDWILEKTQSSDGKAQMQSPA
Sequence of human activated kallikrein enzyme (P03952 20-390 partner limits assumed): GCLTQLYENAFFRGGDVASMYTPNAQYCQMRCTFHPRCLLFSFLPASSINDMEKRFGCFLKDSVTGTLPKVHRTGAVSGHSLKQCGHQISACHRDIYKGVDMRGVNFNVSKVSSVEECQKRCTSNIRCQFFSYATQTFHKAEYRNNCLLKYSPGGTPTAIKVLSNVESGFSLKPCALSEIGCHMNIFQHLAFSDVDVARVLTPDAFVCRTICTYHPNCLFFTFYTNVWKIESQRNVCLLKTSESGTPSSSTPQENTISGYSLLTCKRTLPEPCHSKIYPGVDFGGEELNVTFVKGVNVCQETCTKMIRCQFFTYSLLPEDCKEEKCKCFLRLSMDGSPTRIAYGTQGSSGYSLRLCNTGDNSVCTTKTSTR
In short: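 Fluorogenic readout (ex 380 / em 460 nm) after 10 min room-temperature reaction with 300 uM Pro-Phe-Arg-AMC substrate, following 30 min preincubation of inhibitors with 500 pM enzyme. Buffer: Tris pH 7.5, EDTA, NaCl, PEG-400, Triton X-100. Values given as EC50 ranges.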

T1 sequence (P03952 391-638 limits assumed): as the sequence (P03952 391-638 limits assumed) above
T1 sequence (P03952 20-390 partner limits assumed): as the sequence (P03952 20-390 partner limits assumed) above

| Compound | IC90 (plasma kallikrein) [nM] | EC50 [1] [nM] |
| --- | --- | --- |
| N#Cc1ccc(Cl)cc1[C@H]1C[C@@H]1C(=O)Nc1cc(NCc2cn3cc(C4CC4)cc(N4CCCC4=O)c3n2)ccn1 (racemic) [Example 79, rac-(1S*2S*)-2-(5-chloro-2-cyanophenyl)-N-(4-(((6-cyclopropyl-8-(2-oxopyrrolidin-1-yl)imidazo[1,2-a]pyridin-2-yl)methyl)amino)pyridin-2-yl)cyclopropane-1-carboxamide] | 400 to 1500 | < 1 |
| Cc1ccnc([C@H]2C[C@@H]2C(=O)Nc2cc(NCc3cn4cc(C5CC5)cc(N5CC(=O)N(C)C5=O)c4n3)cnn2)n1 (racemic) [Example 617, rac-(1S*,2S*)—N-(5-(((6-cyclopropyl-8-(3-methyl-2,4-dioxoimidazolidin-1-yl)imidazo[1,2-a]pyridin-2-yl)methyl)amino)pyridazin-3-yl)-2-(4-methylpyrimidin-2-yl)cyclopropane-1-carboxamide] | < 400 | < 1 |
| N#Cc1ccc(Cl)cc1[C@@H]1C[C@H]1C(=O)Nc1cc(NCc2cn3cc(C4CC4)cc(CO)c3n2)ccn1 (racemic) [Example 100, rac-(1S*,2S*)-2-(5-chloro-2-cyanophenyl)-N-(4-(((6-cyclopropyl-8-(hydroxymethyl)imidazo[1,2-a]pyridin-2-yl)methyl)amino)pyridin-2-yl)cyclopropane-1-carboxamide] | 10000 to 48000 | < 1 |
| N#Cc1ccc(Cl)c(F)c1[C@H]1C[C@@H]1C(=O)Nc1cc(NCc2cn3cc(C4CC4)ccc3n2)ncn1 (racemic) [Example 50, rac-(1S*,2S*)-2-(3-chloro-6-cyano-2-fluorophenyl)-N-(6-(((6-cyclopropylimidazo[1,2-a]pyridin-2-yl)methyl)amino)pyrimidin-4-yl)cyclopropane-1-carboxamide] | 10000 to 48000 | 1 to 10 |
| CC(=O)N(C)c1cc(C2CC2)cn2cc(CNc3ccnc(NC(=O)[C@H]4C[C@@H]4c4cccc(Cl)c4)c3)nc12 [Example 139, (1S,2S)-2-(3-chlorophenyl)-N-(4-(((6-cyclopropyl-8-(N-methylacetamido)imidazo[1,2-a]pyridin-2-yl)methyl)amino)pyridin-2-yl)cyclopropane-1-carboxamide] | 400 to 1500 | < 1 |
| COCc1nc(NC(=O)[C@H]2C[C@@H]2c2nccc(C)n2)cc(N[C@H](C)c2cn3cc(C4CC4)cc(N4CC(=O)N(C)C4=O)c3n2)n1 [Example 355, (1S,2S)-N-(6-(((R)-1-(6-cyclopropyl-8-(3-methyl-2,4-dioxoimidazolidin-1-yl)imidazo[1,2-a]pyridin-2-yl)ethyl)amino)-2-(methoxymethyl)pyrimidin-4-yl)-2-(4-methylpyrimidin-2-yl)cyclopropane-1-carboxamide] | < 400 | < 1 |
| Cc1ccnc([C@H]2C[C@@H]2C(=O)Nc2cc(N[C@H](C)c3cn4cc(C5(F)CC5)cc(N5CC(=O)N(C)C5=O)c4n3)ncn2)n1 [Example 424, (1S,2S)-N-(6-(((R)-1-(6-(1-fluorocyclopropyl)-8-(3-methyl-2,4-dioxoimidazolidin-1-yl)imidazo[1,2-a]pyridin-2-yl)ethyl)amino)pyrimidin-4-yl)-2-(4-methylpyrimidin-2-yl)cyclopropane-1-carboxamide] | 400 to 1500 | < 1 |
| Cc1ccnc([C@H]2C[C@@H]2C(=O)Nc2cc(N(C)Cc3cn4cc(C5CC5)cc(N5CC(=O)N(C)C5=O)c4n3)cnn2)n1 [Example I-254, (1S,2S)-N-(5-(((6-cyclopropyl-8-(3-methyl-2,4-dioxoimidazolidin-1-yl)imidazo[1,2-a]pyridin-2-yl)methyl)(methyl)amino)pyridazin-3-yl)-2-(4-methylpyrimidin-2-yl)cyclopropane-1-carboxamide] | < 400 | < 1 |
| Cc1ccnc([C@@]2(F)C[C@@H]2C(=O)Nc2cc(N[C@H](C)c3cn4cc(C5CC5)cc(N5CC(=O)N(C)C5=O)c4n3)nc(C)n2)n1 (racemic) [Example 546, rac-(1S*,2S*)—N-(6-(((R)-1-(6-cyclopropyl-8-(3-methyl-2,4-dioxoimidazolidin-1-yl)imidazo[1,2-a]pyridin-2-yl)ethyl)amino)-2-methylpyrimidin-4-yl)-2-fluoro-2-(4-methylpyrimidin-2-yl)cyclopropane-1-carboxamide] | 400 to 1500 | < 1 |
| Cc1ccnc([C@H]2C[C@@H]2C(=O)Nc2cc(N[C@H](C)c3cn4cc(C5CC5)cc(S(C)(=O)=O)c4n3)nc(C)n2)n1 [Example 361, (1S,2S)-N-(6-(((R)-1-(6-cyclopropyl-8-(methylsulfonyl)imidazo[1,2-a]pyridin-2-yl)ethyl)amino)-2-methylpyrimidin-4-yl)-2-(4-methylpyrimidin-2-yl)cyclopropane-1-carboxamide] | 400 to 1500 | < 1 |
| Cc1ccnc([C@H]2C[C@@H]2C(=O)Nc2ncc(F)c(NCc3cn4cc(C5CC5)cc(N5CC(=O)N(C)C5=O)c4n3)n2)n1 (racemic) [Example 517, rac-(1S*,2S*)-N-(4-(((6-cyclopropyl-8-(3-methyl-2,4-dioxoimidazolidin-1-yl)imidazo[1,2-a]pyridin-2-yl)methyl)amino)-5-fluoropyrimidin-2-yl)-2-(4-methylpyrimidin-2-yl)cyclopropane-1-carboxamide] | < 400 | < 1 |

Other lines, results leading:

| IC90 (plasma kallikrein) [nM] | EC50 [1] [nM] | Compound |
| --- | --- | --- |
| 400 to 1500 | < 1 | CN1CCN(c2cc(C3CC3)cn3cc(CNc4cc(NC(=O)[C@H]5C[C@@H]5c5cc(Cl)ccn5)ncn4)nc23)C(=O)C1 (racemic) [Example I-195, rac-(1S*,2S*)-2-(4-chloropyridin-2-yl)-N-(6-(((6-cyclopropyl-8-(4-methyl-2-oxopiperazin-1-yl)imidazo[1,2-a]pyridin-2-yl)methyl)amino)pyrimidin-4-yl)cyclopropane-1-carboxamide] |
| < 400 | < 1 | CN1CC(O)(c2cc(C3CC3)cn3cc(CNc4ccnc(NC(=O)[C@H]5C[C@@H]5c5cccc(Cl)c5)c4)nc23)C1 [Example 608, (1S,2S)-2-(3-chlorophenyl)-N-(4-(((6-cyclopropyl-8-(3-hydroxy-1-methylazetidin-3-yl)imidazo[1,2-a]pyridin-2-yl)methyl)amino)pyridin-2-yl)cyclopropane-1-carboxamide] |
| 400 to 1500 | < 1 | O=C(Nc1cc(NCc2cn3cc(C4CC4)cc(N4CCN(CC5CC5)CC4)c3n2)ccn1)[C@H]1C[C@@H]1c1cccc(Cl)c1 [Example 601, (1S,2S)-2-(3-chlorophenyl)-N-(4-(((6-cyclopropyl-8-(4-(cyclopropylmethyl)piperazin-1-yl)imidazo[1,2-a]pyridin-2-yl)methyl)amino)pyridin-2-yl)cyclopropane-1-carboxamide] |
| < 400 | < 1 | Cc1ccnc([C@H]2C[C@@H]2C(=O)Nc2cc(NCc3cn4cc(C5CC5)cc(N5CC(=O)N(C)C5=O)c4n3)nc(C)n2)n1 (racemic) [Example 366, rac-(1S*,2S*)-N-(6-(((6-cyclopropyl-8-(3-methyl-2,4-dioxoimidazolidin-1-yl)imidazo[1,2-a]pyridin-2-yl)methyl)amino)-2-methylpyrimidin-4-yl)-2-(4-methylpyrimidin-2-yl)cyclopropane-1-carboxamide] |
| < 400 | < 1 | Cc1ccnc([C@H]2C[C@@H]2C(=O)Nc2cc(NCc3cn4cc(C5(F)CC5)cc(N5CC(=O)N(C)C5=O)c4n3)ncn2)n1 [Example 374, (1S,2S)-N-(6-(((6-(1-fluorocyclopropyl)-8-(3-methyl-2,4-dioxoimidazolidin-1-yl)imidazo[1,2-a]pyridin-2-yl)methyl)amino)pyrimidin-4-yl)-2-(4-methylpyrimidin-2-yl)cyclopropane-1-carboxamide] |
| 400 to 1500 | < 1 | O=C(Nc1cc(NCc2cn3cc(C4CC4)cc(N4CCN5CCCC5C4)c3n2)ccn1)[C@H]1C[C@@H]1c1cccc(Cl)c1 (stereo partly drawn) [Example I-231, (1S,2S)-2-(3-chlorophenyl)-N-(4-(((6-cyclopropyl-8-(hexahydropyrrolo[1,2-a]pyrazin-2(1H)-yl)imidazo[1,2-a]pyridin-2-yl)methyl)amino)pyridin-2-yl)cyclopropane-1-carboxamide] |
| < 400 | < 1 | Cc1ccnc([C@H]2C[C@@H]2C(=O)Nc2nc(C)nc(NCc3cn4cc(C5CC5)cc(N5CC(=O)N(C)C5=O)c4n3)n2)n1 (racemic) [Example 525, rac-(1S*,2S*)-N-(4-(((6-cyclopropyl-8-(3-methyl-2,4-dioxoimidazolidin-1-yl)imidazo[1,2-a]pyridin-2-yl)methyl)amino)-6-methyl-1,3,5-triazin-2-yl)-2-(4-methylpyrimidin-2-yl)cyclopropane-1-carboxamide] |
